Data set [1] has as its system Clostridium difficile. The data set can be described thus: MIC, Clostridium difficile in Wilkins-Chalgren Anaerobe Agar. In kind it is cell-based. Further details: key: MIC in μg/ml (two-fold dilutions, 0.06–64). How it is done:
(§1) Susceptibility testing for all aerobic organisms with the exception of Streptococcus pneumoniae was performed by two-fold serial antibiotic dilutions in Mueller-Hinton Broth supplemented with 50 μg/ml Ca^2+ unless otherwise noted. Susceptibility testing for S. pneumoniae was performed by two-fold serial antibiotic dilutions in Brain-Heart-Infusion Broth supplemented with 50 μg/ml Ca^2+ unless otherwise noted. Actively growing broth cultures were diluted to contain […] by adjusting to an OD600 of 0.2-0.3. They were then diluted a further 1:100 in fresh sterile broth. The assays were performed in duplicate in sterile 96-well microtitre plates in a total volume of 200 μl (160 μl broth, 20 μl antimicrobial agent, 20 μl inoculum) in a concentration range from 64 μg/ml to 0.06 μg/ml. […] Clinical isolates of Clostridium difficile were tested in Wilkins-Chalgren Anaerobe Agar under anaerobic conditions. In all cases, vancomycin was used as a reference antibiotic

Data set [2] relates to E. faecium. The experiment in a line: MIC susceptibility testing, E. faecium. The format is cell-based. To be noted: Enterococcus faecium. How it is done: as §1
Data set [3] relates to E. faecalis. The data set can be described thus: MIC susceptibility testing, E. faecalis. In kind it is cell-based. To be noted: Enterococcus faecalis; E. faecalis 29212; Table 2; read-out: MIC. How it is done:
as §1

In data set [4] the test system is S. aureus. The experiment in a line: MIC susceptibility testing, S. aureus. The format is cell-based, Staphyloccus aureus. To be noted: Staphylococcus aureus, Table 2, read-out: MIC. How it is done: as §1
The test system of data set [5] is S. epidermidis. The experiment in a line: MIC susceptibility testing, S. epidermidis. The format is cell-based, Staphylococcus epidermidis. The settings on record: Staphylococcus epidermidis. How it is done:
as §1

Data set [6] has as its system M. luteus. The experiment in a line: MIC susceptibility testing, M. luteus. The format is cell-based. The settings on record: Micrococcus luteus; M. luteus 4698; Table 2; read-out: MIC. How it is done:
as §1

Data set [7] relates to S. pneumoniae. The data set can be described thus: MIC susceptibility testing, S. pneumoniae (Brain-Heart-Infusion Broth). The format is cell-based, Streptococcus pneumoniae. The settings on record: Streptococcus pneumoniae; S. pneumoniae R6; Table 2; read-out: MIC. How it is done:
as §1

Data set [8] deals with E. coli. The experiment in a line: MIC against intestinal flora organisms, E. coli. The settings on record: for MIC: Escherichia coli, read-out: Minimal Inhibitory Concentration (MIC). In kind it is cell-based. How it is done:
as §1

The subject of data set [9] is Bifidobacterium adolescentis. The data set can be described thus: MIC against intestinal flora organisms, Bifidobacterium adolescentis. The settings on record: NCTC11814; Bifidobacterium adolescentis NCTC 11814; Table 5; read-out: Minimal Inhibitory Concentration (MIC). The format is cell-based.
Data set [10] has as its system Bifidobacterium longum. The experiment in a line: MIC against intestinal flora organisms, Bifidobacterium longum. The format is cell-based. The settings on record: NCTC11818; Bifidobacterium longum NCTC 11818; Table 5; read-out: Minimal Inhibitory Concentration (MIC).
Data set [11] relates to Bacteroides fragilis. The experiment in a line: MIC against intestinal flora organisms, Bacteroides fragilis. In kind it is cell-based. The settings on record: NCTC9343; Bacteroides fragilis NCTC 9343; Table 5; read-out: Minimal Inhibitory Concentration (MIC).
For data set [12], the system named is Bacteroides thetaiotaomicron. The data set can be described thus: MIC against intestinal flora organisms, Bacteroides thetaiotaomicron. The format is cell-based. The settings on record: NCTC10582; Bacteroides thetaiotaomicron NCTC 10582; Table 5; read-out: Minimal Inhibitory Concentration (MIC).
For data set [13], the system named is C. difficile strain VPI 10463. The data set can be described thus: Hamster model of C. difficile associated cecitis, first experiment (FIG. 1). In kind it is in vivo. To be noted: C. difficile VPI 10463, three times daily at 50 mg/kg/day, 5-day dosing period, groups of 6. How it is done: In the first experiment (FIG. 1) groups of 6 animals were dosed with approximately 10^7 cells of C. difficile strain VPI 10463 and 24 hours later with a subcutaneous dose of 10 mg/kg clindamycin phosphate.
The procedure as described induced a C. difficile infection in the test animals, from which all animals treated only with vehicle died within 3 days.

Data set [14] has as its system Micrococcus luteus. The experiment in a line: In vitro antibacterial activity against Micrococcus luteus during SIF incubation. The settings on record: after incubation in SIF. In kind it is cell-based. How it is done:
(§2) Nisin, mersacidin, compound I and compound III were tested for their susceptibility towards enzymatic digestion in the stomach. Nisin, mersacidin and compound III were tested for their susceptibility towards enzymatic digestion in the intestine. The SGF and SIF were based on the standard USP solutions for simulated gastric and simulated intestinal fluids and their activity confirmed against Bovine Serum Albumin (Hilger et al, Clin. Exp. Immunol. 2001, 123, 387-94). The compounds were incubated in SGF or SIF at 37° C. and their concentrations quantified by analytical HPLC (UV detection at 210 nm). The potential degradation of each compound was also monitored qualitatively by measuring in vitro antibacterial activity against Micrococcus luteus.

The nature of data set [15]: Water solubility. The format is physicochemical. The settings on record: aqueous. From the text: Typically, compounds of the invention were isolated using phosphate buffers.
Data set [16] in a line: Stability in simulated gastric fluid (SGF). The format is in vitro ADME. The settings on record: 37° C., analytical HPLC. How it is done:
as §2

For data set [17] the following is noted: rat, 100 mg/kg oral.
Procedure: Male Sprague-Dawley rats were dosed with compound I at 100 mg/kg via the oral route. Faeces and urine were collected over a 48 h period in two batches (at 24 h and 48 h post dose). Blood samples were taken at various time points for the first 24 h.

We go through seven compounds from US8329644B2, “Lantibiotic-based compounds having antimicrobial activity” (Novacta Biosystems Limited, priority 2007, dated 2012).

≈ marks a conversion by molar mass, not a printed value. Read-outs that look alike come from different tables or passages of the source. Where only a bound is given, the exact number is not on record here.

As to “Deoxy-actagardine B (L-serine methyl ester) monocarboxamide [Compound XXI]”, the MIC in [1] (C. difficile 027C, Table 4A) worked out at 2; in data set [1] (C. difficile 630, Table 4A), 4; in data set [1] (C. difficile 19126, Table 4A), 4; in data set [1] (C. difficile 37779, Table 4A), 4.

Turning to `CN[C@H](CC(C)C)C(=O)N[C@H]1C(=O)N[C@@H](CC(N)=O)C(=O)N[C@H]2C(=O)N[C@H]3C(=O)N[C@H](C(=O)N[C@H](C(=O)O)c4cc(O)cc(O)c4-c4cc3ccc4O)[C@H](O)c3ccc(c(Cl)c3)Oc3cc2cc(c3O[C@@H]2O[C@H](CO)[C@@H](O)[C@H](O)[C@H]2O[C@H]2C[C@](C)(N)[C@H](O)[C@H](C)O2)Oc2ccc(cc2Cl)[C@H]1O` [Vancomycin, vancomycin, reference compound], the MIC in [2] (ATCC19579, E. faecium (VSE) ATCC 19579, Table 5, read-out: Minimal Inhibitory Concentration (MIC)) is 0.5 µg/mL (≈ 0.345 µM); in data set [2] (ATCC29212, read-out: Minimal Inhibitory Concentration (MIC), E. faecium (VSE) ATCC 29212, Table 5), 4 µg/mL (≈ 2.76 µM); in data set [2] (E. faecium 19579, Table 2, read-out: MIC) it was 4 µg/mL (≈ 2.76 µM); in [2] (E. faecium 7131121, Table 2, read-out: MIC) it was greater than 64 µg/mL; in [2] (VRE, E. faecium (VRE) (clinical isolate), Table 5, first isolate, read-out: Minimal Inhibitory Concentration (MIC)), greater than 64 µg/mL; in data set [2] (VRE, E. faecium (VRE) (clinical isolate), Table 5, second isolate, read-out: Minimal Inhibitory Concentration (MIC)), greater than 64 µg/mL. Moreover, the MIC is 4 µg/mL (≈ 2.76 µM) in data set [3]; 1 µg/mL (≈ 0.69 µM) in data set [4] (S. aureus R33); 2 µg/mL (≈ 1.38 µM) in data set [4] (S. aureus SH1000); 2 µg/mL (≈ 1.38 µM) in data set [5]; 2 µg/mL (≈ 1.38 µM) in data set [6]; greater than 64 µg/mL in data set [7]. Also, the MIC in data set [1] (Clostridioides difficile, C. difficile 027C, Table 4, read-out: MIC) worked out at 0.5 µg/mL (≈ 0.345 µM); in [1] (Clostridioides difficile, C. difficile 027SM, Table 4, read-out: MIC), 0.5 µg/mL (≈ 0.345 µM); in data set [1] (Clostridioides difficile, C. difficile 19126, Table 4, read-out: MIC), 1 µg/mL (≈ 0.69 µM); in [1] (Clostridioides difficile, C. difficile 37779, Table 4, read-out: MIC), 1 µg/mL (≈ 0.69 µM); in data set [1] (Clostridioides difficile, C. difficile B32, Table 4, read-out: MIC), 1 µg/mL (≈ 0.69 µM); in data set [1] (Clostridioides difficile, C. difficile E4, Table 4, read-out: MIC), 1 µg/mL (≈ 0.69 µM). Also, the MIC was 1 µg/mL (≈ 0.69 µM) in data set [1] (Clostridioides difficile, C. difficile E16, Table 4, read-out: MIC); 1 µg/mL (≈ 0.69 µM) in data set [1] (Clostridioides difficile, C. difficile E101, Table 4, read-out: MIC); 1 µg/mL (≈ 0.69 µM) in [1] (Clostridioides difficile, C. difficile P24, Table 4, read-out: MIC); 0.5 µg/mL (≈ 0.345 µM) in data set [1] (Clostridioides difficile, C. difficile P49, Table 4, read-out: MIC); 1 µg/mL (≈ 0.69 µM) in data set [1] (Clostridioides difficile, C. difficile P59, Table 4, read-out: MIC); 0.5 µg/mL (≈ 0.345 µM) in data set [1] (Clostridioides difficile, C. difficile P62, Table 4, read-out: MIC). The MIC in data set [8] (ATCC25922, E. coli ATCC 25922, Table 5) was greater than 64 µg/mL; in data set [8] (E. coli DC2 (membrane more susceptible), Table 5, second line), greater than 64 µg/mL; in data set [9] it was 1 µg/mL (≈ 0.69 µM); in [10], 1 to 2 µg/mL (≈ 0.69 to 1.38 µM); in data set [11], 32 µg/mL (≈ 22.1 µM); in [12], 64 µg/mL (≈ 44.2 µM). Also, in data set [8] (E. coli DC2 (membrane more susceptible), Table 5, first line), the “Minimal Inhibitory Concentration (MIC)” value was greater than 64 µg/mL. Besides, the “survival of infected animals” value in data set [13] is recorded as “survived for the duration of the entire 5-day dosing period”.

On to “Deoxy-actagardine B (2-hydroxypiperazine) monocarboxamide [Compound XXIII]”, for which the MIC in data set [1] (C. difficile 027C, Table 4A) amounted to 4; in data set [1] (C. difficile 630, Table 4A), 2; in data set [1] (C. difficile 19126, Table 4A), 4; in [1] (C. difficile 37779, Table 4A), 4.

As to mersacidin, the “in vitro activity against M. luteus during the course of the experiment” value in data set [14] is reported as “remained unaltered”.

With `CC[C@H](C)[C@@H]1NC(=O)[C@@H]2NC(=O)[C@H](CC(C)C)NC(=O)[C@H](NC(=O)[C@@H]3CSC[C@@H](N)C(=O)N[C@@H](CO)C(=O)NCC(=O)N[C@@H](Cc4c[nH]c5ccccc45)C(=O)N[C@@H](C(C)C)C(=O)N3)[C@H](C)SC[C@H](NC(=O)[C@H](CCC(=O)O)NC1=O)C(=O)NCC(=O)N[C@H]1C(=O)N[C@@H](CC(C)C)C(=O)N[C@@H](C(C)C)C(=O)N[C@@H](CS[C@H]2C)C(=O)N[C@@H](C)C(=O)N[C@H](C(=O)NCCO)CS[C@H]1C` [Compound I, Deoxy-Actagardine B N-[2-ethanolamine]monocarboxamide], the concentration in solution in [15] (solubility) came to 15 mg/mL (≈ 7820 µM). Also, in data set [16], the “degradation in Simulated Gastric Fluid” value was “did not show appreciable degradation”. For the same compound, the “material recovered from plasma or urine” value in data set [17] is recorded as “No material was recovered”.

Turning to “Deoxy-Actagardine B N-[2-hydroxy-2-phenylethylamine]monocarboxamide [Compound XX]”, the MIC is 2 in [1] (C. difficile 027C, Table 4A); 2 in [1] (C. difficile 630, Table 4A); 2 in data set [1] (C. difficile 19126, Table 4A); 2 in data set [1] (C. difficile 37779, Table 4A).

As to “Deoxyactagardine B (N-(2-hydroxyethyl)ethylenediamine) monocarboxamide [Compound XXII]”, the MIC in [1] (C. difficile 027C, Table 4A) is recorded as 2; in data set [1] (C. difficile 630, Table 4A) it was 2; in data set [1] (C. difficile 19126, Table 4A) it was 2; in data set [1] (C. difficile 37779, Table 4A), 2.
